Consider one compound from patent publication US8519188B2, “Compounds which can be used for the treatment of cancers” (Marc-Henry Pitty, priority 2008, dated 2013).

Test [1] has as its system MCF-7/adr adriamycin-resistant breast cancer cell line. Kind of test: Cell proliferation (CellTiter 96 AQueous MTS/PMS), MCF-7/adr. To be noted: Homo sapiens, NCI/ADR-RES; MCF-7/adr; 72 hours of incubation; concentration that induces the death of 50% of the cells; read-out: CI50 for various cell lines (nM) MCF-7/adr. The test is classed as cell-based.
The test system of test [2] is HL-60 acute promyelocytic leukaemia cell line. The experiment in a line: Cell proliferation (CellTiter 96 AQueous MTS/PMS), HL-60. The test is classed as cell-based, human. To be noted: Homo sapiens; HL-60; 72 hours of incubation; read-out: CI50 for various cell lines (nM) HL-60. The procedure: (§1) The effects of the compounds of the invention on the proliferation of cancer cells were studied on various human cancer cell lines of various tissue origins (MCF-7: breast cancer, MCF-7/adr adriamycin-resistant breast cancer, ARH-77: myeloma, ARH-77/Dox: doxorubicin (other name for adriamycin)-resistant myeloma, HL-60: acute promyelocytic leukaemia, HL-60/R10: doxorubicin-resistant acute promyelocytic leukaemia). The cancer cells used for this study were incubated at 37° C. in the presence of one of the compounds of the invention added to the culture medium at various concentrations.
(§2) The cancer cell lines originate from the ATCC (American Type Culture Collection) in the case of MCF-7, ARH-77 and HL-60, from Pharmacell (Paris, France) for HL-60/R10, from Oncodesign (Dijon, France) for ARH-77/Dox and from the Pitié Salpetrière Hospital for MCF-7/adr. They were cultivated in a RPMI 1640 medium containing 2 mM L-glutamine and supplemented with 10% foetal calf serum. All the cell lines were maintained in culture at 37° C. in a moist atmosphere containing 5% CO2. Cell proliferation was evaluated using the “CellTiter 96® AQueous” reagent (Promega, Wis., USA) while adhering to the manufacturer's instructions. The cells were seeded in 96-well culture plates in a proportion of from 5,000 to 10,000 cells per well in 200 μl of culture medium. After 24 hours of preincubation at 37° C., the compounds of the invention dissolved in dimethyl sulphoxide (DMSO) were added individually to each of the wells in a proportion of 2 μl per well. After 72 hours of incubation at 37° C. in a moist atmosphere containing 5% CO2, 40 μL of a MTS/PMS ([3-(4,5-dimethylthiazol-2-yl)-5-(3-carboxymethoxyphenyl)-2-(4-sulphophenyl)-2H-tetrazolium phenazine methosulphate) solution were added to each well.

Test [3] has as its system ARH-77/Dox doxorubicin-resistant myeloma cell line. The experiment in a line: Cell proliferation (CellTiter 96 AQueous MTS/PMS), ARH-77/Dox. The test is classed as cell-based. To be noted: Homo sapiens, 72 hours of incubation, read-out: CI50 for various cell lines (nM) ARH-77/Dox. The procedure: as §1, §2
A further test concerns ARH-77 myeloma cell line. The experiment in a line: Cell proliferation (CellTiter 96 AQueous MTS/PMS), ARH-77. It is filed as cell-based. To be noted: Homo sapiens, 72 hours of incubation, read-out: CI50 for various cell lines (nM) ARH-77. The procedure: as §1, §2
Test [4] has as its system HL-60/R10 doxorubicin-resistant acute promyelocytic leukaemia cell line. Kind of test: Cell proliferation (CellTiter 96 AQueous MTS/PMS), HL-60/R10. The test is classed as cell-based, human. To be noted: Homo sapiens; HL-60/R10; 72 hours of incubation; read-out: CI50 for various cell lines (nM) HL-60/R10. The procedure: as §1, §2
Test [5] concerns MCF-7 breast cancer cell line. The experiment in a line: Cell proliferation (CellTiter 96 AQueous MTS/PMS), MCF-7. It is filed as cell-based. To be noted: Homo sapiens, MCF7; MCF-7; 72 hours of incubation; concentration that induces the death of 50% of the cells; read-out: CI50 for various cell lines (nM) MCF-7.

Molecules are shown by their SMILES.

With `C#CC(=O)N(c1cccc(C(F)(F)F)c1)C(C(=O)NC1CCCCC1)c1cccs1` (stereo not drawn) [Compound 3, Propynoic Acid (cyclohexylcarbamoylthiophen-2-yl-methyl)-(3-trifluoromethylphenyl)amide], the IC50 is 2.6 nM in test [1]; 2960 nM in test [2]; 5 nM in test [3]; 58 nM in the test on ARH-77 myeloma cell line; 46 nM in test [4]; 275 nM in test [5].
